According to ChEMBL document CHEMBL1201862, “PubChem BioAssay data set” (2004):
Activity calls are given as the source filed them.

Experiments:
HEK293 [1] = experiment: cells; conditions: Homo sapiens
Beta-galactosidase = Beta-galactosidase (Escherichia coli, UniProt Q8VNN2); experiment: PubChem AID 485352; assay type: functional
[2] = HepG2 cell cytotoxicity, dose response, cytotoxicity control for Shn3 inhibitor project, CellTiter-Glo, cherry-picked (AID 624134); assay type: functional, cell-based
[3] = Shn3 3'UTR reporter inhibitors, dose response, cell-based, Clone20 osteoblasts, firefly luciferase, cherry-picked (AID 624132); assay type: functional;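 also: firefly luciferase luminescence from reporter carrying the Shn3 3'UTR in osteoblasts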
[4] = Fluorescence-based cell-based high throughput dose response assay for inhibitors of the interaction of nucleotide-binding oligomerization domain containing 2 (NOD2) and the receptor-interacting serine-threonine kinase 2 (RIPK2).; assay type: functional; conditions: Homo sapiens
[5] = biological target: T1, Type-1 angiotensin II receptor (Homo sapiens, UniProt P30556); experiment: AT1 receptor antagonists, dose response, selectivity assay for APJ receptor antagonist project, cell-based, uHTS hits (AID 463214); assay type: functional;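 also: antagonist potency against angiotensin II stimulated AT1 response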
T1 sequence (P30556 whole entry): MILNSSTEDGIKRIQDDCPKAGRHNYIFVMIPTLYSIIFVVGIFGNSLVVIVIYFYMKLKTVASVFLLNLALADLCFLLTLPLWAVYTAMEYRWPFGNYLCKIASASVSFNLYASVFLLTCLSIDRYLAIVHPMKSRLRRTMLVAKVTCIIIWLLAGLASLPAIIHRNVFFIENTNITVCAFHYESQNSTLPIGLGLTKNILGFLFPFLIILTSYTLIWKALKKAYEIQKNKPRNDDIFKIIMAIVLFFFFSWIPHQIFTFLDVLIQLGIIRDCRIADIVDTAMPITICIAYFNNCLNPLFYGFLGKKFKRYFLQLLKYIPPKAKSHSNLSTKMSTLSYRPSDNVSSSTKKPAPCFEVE

HEK293 [6] = experiment: cells; conditions: Homo sapiens; remark: listed apart in the source
A-375 = experiment: A375 melanoma cell viability reduction, dose response, counter-screen for MITF modulator project, cherry-pick samples, set 2 (AID 540335); assay type: functional, cell-based; conditions: Homo sapiens
Mu-type opioid receptor = Mu-type opioid receptor (Homo sapiens, UniProt P35372); experiment: (§1) Counterscreen for agonists of heterodimerization of the mu 1 (OPRM1) and delta 1 (OPRD1) opioid receptors: Luminescence-based cell-based high throughput dose response assay to identify agonists of OPRM1 homodimerization.; assay type: functional
Sequence of Mu-type opioid receptor (P35372 whole entry): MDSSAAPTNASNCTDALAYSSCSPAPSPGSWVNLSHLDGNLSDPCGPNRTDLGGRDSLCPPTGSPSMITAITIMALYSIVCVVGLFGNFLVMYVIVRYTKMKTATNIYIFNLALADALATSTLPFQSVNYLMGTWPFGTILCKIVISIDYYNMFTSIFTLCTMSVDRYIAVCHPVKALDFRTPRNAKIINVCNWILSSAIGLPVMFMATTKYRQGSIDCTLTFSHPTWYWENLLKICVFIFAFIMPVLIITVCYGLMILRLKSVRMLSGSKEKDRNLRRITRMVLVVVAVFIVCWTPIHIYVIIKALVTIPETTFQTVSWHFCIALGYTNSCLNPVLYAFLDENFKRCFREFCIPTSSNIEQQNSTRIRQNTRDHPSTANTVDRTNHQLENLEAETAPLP

[7] = biological target: T2, Short transient receptor potential channel 4 (Mus musculus, UniProt Q9QUQ5); experiment: mouse TRPC4 channel activators, dose response, cell-based, HEK293 TRPC4/mu-opioid, Fluo-4 calcium (AID 434937); assay type: functional
T2 sequence (Q9QUQ5 whole entry): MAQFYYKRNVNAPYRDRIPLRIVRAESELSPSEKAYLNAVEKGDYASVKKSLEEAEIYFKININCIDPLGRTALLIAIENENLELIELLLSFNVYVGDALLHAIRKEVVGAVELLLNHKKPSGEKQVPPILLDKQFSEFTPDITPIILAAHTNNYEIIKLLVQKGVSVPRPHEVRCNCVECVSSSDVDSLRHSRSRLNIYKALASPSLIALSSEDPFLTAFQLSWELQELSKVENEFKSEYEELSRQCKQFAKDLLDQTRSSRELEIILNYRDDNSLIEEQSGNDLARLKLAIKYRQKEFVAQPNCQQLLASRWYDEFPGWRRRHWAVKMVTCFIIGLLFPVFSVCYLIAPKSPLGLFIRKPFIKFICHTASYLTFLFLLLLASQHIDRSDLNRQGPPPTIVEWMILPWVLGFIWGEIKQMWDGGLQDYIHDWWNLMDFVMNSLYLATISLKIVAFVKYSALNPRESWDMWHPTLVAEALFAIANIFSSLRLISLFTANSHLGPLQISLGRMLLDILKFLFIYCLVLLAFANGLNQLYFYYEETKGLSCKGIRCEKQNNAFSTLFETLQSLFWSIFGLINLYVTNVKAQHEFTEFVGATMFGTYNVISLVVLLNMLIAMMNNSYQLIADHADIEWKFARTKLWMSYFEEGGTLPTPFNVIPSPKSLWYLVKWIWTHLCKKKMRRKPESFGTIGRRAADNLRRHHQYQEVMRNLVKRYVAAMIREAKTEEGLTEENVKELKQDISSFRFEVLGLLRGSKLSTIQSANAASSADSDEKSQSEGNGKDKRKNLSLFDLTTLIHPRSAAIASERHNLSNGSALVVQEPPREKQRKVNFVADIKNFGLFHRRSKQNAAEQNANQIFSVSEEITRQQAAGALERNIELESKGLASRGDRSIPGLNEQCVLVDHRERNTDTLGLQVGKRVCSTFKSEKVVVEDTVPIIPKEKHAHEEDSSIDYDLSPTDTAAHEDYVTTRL

[8] = biological target: Delta-type opioid receptor (Homo sapiens, UniProt P41143); experiment: as §1, with “of OPRD1” for “of OPRM1”, “homodimerization. [Related pubchem assays (depositor defined):AID504326, AID504355, AID504692, AID504904, AID504905]” for “homodimerization.”; assay type: functional
Sequence of Delta-type opioid receptor (P41143 whole entry): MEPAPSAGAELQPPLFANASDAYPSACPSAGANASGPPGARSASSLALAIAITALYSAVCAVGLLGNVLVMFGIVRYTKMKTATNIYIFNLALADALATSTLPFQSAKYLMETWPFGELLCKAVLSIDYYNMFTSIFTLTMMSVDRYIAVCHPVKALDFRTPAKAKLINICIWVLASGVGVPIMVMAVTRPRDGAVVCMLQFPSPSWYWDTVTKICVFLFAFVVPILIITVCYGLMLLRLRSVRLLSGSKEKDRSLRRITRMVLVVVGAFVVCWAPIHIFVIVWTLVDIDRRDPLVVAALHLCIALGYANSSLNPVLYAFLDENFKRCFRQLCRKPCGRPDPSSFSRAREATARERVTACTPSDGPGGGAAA

[9] = biological target: 5-hydroxytryptamine receptor 5A (Homo sapiens, UniProt P47898); experiment: Counterscreen for agonists of OPRM1-OPRD1 heterodimerization: luminescence-based cell-based high throughput dose response assay to identify agonists of 5-hydroxytryptamine (serotonin) 5A receptor (HTR5A). [Related pubchem assays (depositor defined):AID504326, AID504355, AID504692, AID504904, AID504905]; assay type: functional
Sequence of 5-hydroxytryptamine receptor 5A (P47898 whole entry): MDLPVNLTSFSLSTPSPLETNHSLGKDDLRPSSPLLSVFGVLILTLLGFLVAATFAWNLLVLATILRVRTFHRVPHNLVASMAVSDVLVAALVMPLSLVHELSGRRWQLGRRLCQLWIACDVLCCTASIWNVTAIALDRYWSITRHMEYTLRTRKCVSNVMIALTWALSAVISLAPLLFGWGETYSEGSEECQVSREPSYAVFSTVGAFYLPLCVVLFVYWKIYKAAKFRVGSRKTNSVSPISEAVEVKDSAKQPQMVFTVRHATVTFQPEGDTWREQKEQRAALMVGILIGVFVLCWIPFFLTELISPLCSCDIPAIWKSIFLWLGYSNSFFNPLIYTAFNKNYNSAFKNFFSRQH

Hexokinase-1 = biological target: T3, Hexokinase-1 (Homo sapiens, UniProt P19367); experiment: HK1 enzyme inhibition by HKDC1 hits, SAR follow-up, selectivity assay for HKDC1 inhibitor project, biochemical, set 2, resazurin fluorescence coupled readout (AID 588356); assay type: functional
T3 sequence (P19367 whole entry): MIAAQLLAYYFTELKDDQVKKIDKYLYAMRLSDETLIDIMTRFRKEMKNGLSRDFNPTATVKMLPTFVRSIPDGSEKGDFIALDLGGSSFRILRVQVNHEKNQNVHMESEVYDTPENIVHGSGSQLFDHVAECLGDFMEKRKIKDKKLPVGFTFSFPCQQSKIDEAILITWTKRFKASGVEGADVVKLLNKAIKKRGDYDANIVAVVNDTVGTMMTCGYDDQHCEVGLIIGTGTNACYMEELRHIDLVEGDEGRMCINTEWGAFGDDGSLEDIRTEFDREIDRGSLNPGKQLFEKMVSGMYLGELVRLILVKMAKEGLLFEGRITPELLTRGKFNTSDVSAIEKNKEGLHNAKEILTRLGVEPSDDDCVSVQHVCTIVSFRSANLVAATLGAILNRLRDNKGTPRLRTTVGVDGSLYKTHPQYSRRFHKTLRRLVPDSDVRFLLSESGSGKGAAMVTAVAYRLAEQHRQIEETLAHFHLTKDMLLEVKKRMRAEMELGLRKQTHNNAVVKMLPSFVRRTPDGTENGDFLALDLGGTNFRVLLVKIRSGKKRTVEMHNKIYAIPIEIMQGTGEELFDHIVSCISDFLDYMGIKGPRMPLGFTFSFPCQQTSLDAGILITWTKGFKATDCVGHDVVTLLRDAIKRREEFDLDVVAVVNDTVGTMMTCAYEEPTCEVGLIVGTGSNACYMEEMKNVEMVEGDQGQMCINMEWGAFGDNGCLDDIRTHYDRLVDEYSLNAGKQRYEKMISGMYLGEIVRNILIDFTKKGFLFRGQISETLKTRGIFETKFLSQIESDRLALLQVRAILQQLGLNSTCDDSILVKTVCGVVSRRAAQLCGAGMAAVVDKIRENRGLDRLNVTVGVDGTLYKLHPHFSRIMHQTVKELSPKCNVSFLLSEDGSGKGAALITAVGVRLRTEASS

Hexokinase HKDC1 = biological target: T4, Hexokinase HKDC1 (Homo sapiens, UniProt Q2TB90); experiment: HKDC1 hexokinase inhibitors, SAR follow-up, biochemical, set 2 (AID 588355); assay type: functional
T4 sequence (Q2TB90 whole entry): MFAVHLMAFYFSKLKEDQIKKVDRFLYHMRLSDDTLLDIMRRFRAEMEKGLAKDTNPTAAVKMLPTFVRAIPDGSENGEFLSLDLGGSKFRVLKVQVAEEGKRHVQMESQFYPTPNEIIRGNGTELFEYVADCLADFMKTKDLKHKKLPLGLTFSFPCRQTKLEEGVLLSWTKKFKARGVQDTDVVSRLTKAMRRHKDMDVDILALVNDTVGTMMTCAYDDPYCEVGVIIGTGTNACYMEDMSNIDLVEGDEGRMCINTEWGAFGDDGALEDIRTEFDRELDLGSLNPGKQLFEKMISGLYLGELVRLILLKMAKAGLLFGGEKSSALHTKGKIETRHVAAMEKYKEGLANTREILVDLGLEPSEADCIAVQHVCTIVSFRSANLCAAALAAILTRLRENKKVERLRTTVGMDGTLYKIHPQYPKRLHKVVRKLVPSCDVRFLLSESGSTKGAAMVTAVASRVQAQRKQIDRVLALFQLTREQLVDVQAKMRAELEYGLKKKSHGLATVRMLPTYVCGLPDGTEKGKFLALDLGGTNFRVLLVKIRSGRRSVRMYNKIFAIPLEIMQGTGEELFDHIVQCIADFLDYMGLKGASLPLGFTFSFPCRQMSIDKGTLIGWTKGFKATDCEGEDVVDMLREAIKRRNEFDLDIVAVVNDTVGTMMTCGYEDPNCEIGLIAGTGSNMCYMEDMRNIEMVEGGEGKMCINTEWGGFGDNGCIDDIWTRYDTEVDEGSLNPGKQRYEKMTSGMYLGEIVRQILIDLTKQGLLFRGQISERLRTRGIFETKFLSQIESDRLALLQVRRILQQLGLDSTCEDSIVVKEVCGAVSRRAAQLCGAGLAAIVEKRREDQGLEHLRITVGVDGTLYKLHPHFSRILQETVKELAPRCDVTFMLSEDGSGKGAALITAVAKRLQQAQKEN

[10] = biological target: T2, Short transient receptor potential channel 4; experiment: SAR Analysis for the identification of selective inhibits of the transient receptor potential cation channel C4 (TRPC4): Automated Electrophysiology_2. [Related pubchem assays (depositor defined):AID2256]; assay type: functional
[11] = biological target: T2, Short transient receptor potential channel 4; experiment: TRPC4 inhibitor concentration-response, dose response, cell-based, HEK293 TRPC4/mu-opioid, DAMGO stimulus, Fluo-4 (AID 492994); assay type: functional

Sequence of Beta-galactosidase (Q8VNN2 whole entry): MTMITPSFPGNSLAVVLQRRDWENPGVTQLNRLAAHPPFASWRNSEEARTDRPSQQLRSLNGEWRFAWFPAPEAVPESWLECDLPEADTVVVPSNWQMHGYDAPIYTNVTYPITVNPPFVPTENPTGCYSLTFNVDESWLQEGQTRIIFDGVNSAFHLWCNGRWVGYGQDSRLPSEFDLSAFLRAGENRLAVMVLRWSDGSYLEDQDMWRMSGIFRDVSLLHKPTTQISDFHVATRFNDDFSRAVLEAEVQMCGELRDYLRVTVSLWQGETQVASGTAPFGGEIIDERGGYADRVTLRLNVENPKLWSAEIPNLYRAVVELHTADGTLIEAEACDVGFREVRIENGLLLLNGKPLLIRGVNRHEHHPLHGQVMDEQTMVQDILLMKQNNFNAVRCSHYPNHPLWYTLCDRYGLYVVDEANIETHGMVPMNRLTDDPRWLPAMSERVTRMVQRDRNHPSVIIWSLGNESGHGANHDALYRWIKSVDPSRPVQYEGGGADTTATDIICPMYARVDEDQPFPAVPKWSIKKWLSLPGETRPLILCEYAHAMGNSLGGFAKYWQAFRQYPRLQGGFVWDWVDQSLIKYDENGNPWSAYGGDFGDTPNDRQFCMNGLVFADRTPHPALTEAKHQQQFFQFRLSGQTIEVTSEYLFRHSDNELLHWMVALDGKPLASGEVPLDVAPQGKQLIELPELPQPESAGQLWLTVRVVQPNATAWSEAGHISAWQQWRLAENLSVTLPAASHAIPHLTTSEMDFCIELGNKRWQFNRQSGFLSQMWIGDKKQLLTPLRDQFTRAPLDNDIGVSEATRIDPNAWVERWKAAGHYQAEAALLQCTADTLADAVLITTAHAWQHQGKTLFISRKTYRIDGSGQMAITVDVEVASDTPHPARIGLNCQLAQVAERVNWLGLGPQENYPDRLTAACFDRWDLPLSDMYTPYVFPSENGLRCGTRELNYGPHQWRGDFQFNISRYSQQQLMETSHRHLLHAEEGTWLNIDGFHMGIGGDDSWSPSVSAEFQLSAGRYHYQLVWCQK

Cc1cccc(C(=O)Nc2ccc(C(=O)/C=C/c3ccncc3)cc2)c1
EC50 (HEK293 [1]): > 59.6 µM (inactive)
EC50 (Beta-galactosidase): > 40 µM (inactive)
AC50 [2]: 36.4 µM (active)
AC50 [3]: 3.41 µM (active)
IC50 [4]: 3.51 µM (active)
IC50 [5]: 9.71 µM (active)
EC50 (HEK293 [6]): > 59.6 µM (inactive)

Cc1ccc(-n2cc(CNCCCn3cccn3)c(-c3cccc(C)c3)n2)cc1
AC50 (A-375): 24.3 µM (active)

CN(C)C(CNC(=O)Cc1ccc([N+](=O)[O-])cc1)c1ccccc1 (stereo unspecified)
EC50 (Mu-type opioid receptor): > 92.5 µM (inactive)
EC50 [7]: 531 nM (active)
EC50 [8]: > 92.5 µM (inactive)
EC50 [9]: > 92.5 µM (inactive)

COc1ccc(NC2c3ccccc3C(=O)N2c2ccccc2C)cc1 (stereo unspecified)
IC50 (Hexokinase-1): > 80 µM (inactive)
IC50 (Hexokinase HKDC1): > 80 µM (inactive)

Cc1cc(N2CCCCCC2)nc2ccc(F)cc12
IC50 [10]: 1.63 µM (active)
IC50 [11]: 3.99 µM (active)
